Measured values as given in PubChem BioAssay AID2060901 (Molecular Pharmacology Branch, DTP, NCI, 2025).

Test system: 422866-222-R5-J1-PDC complex spheroids viability
Test: Anticancer human tumor 422866-222-R5-J1-PDC patient-derived pancreatic adenocarcinoma cell line growth inhibition [RAS]
Settings: for IC50: curve of first compound; for viability, T/C: stronger effect = lower value
How it was run: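 Agents were tested in combination matrices in half-log decrements from a top concentration at or near clinical Cmax (10 microM if undetermined). Targets were multi-cell spheroids of tumour lines plus HUVEC and MSC stromal cells.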

[1] = second compound 0.000949 µM, first compound 0.00316 µM
[2] = second compound 0.000949 µM, first compound 0.01 µM
[3] = second compound 0.000949 µM, first compound 0.0316 µM
[4] = second compound 0.000949 µM, first compound 0.1 µM
[5] = second compound 0.000949 µM, first compound 0.316 µM
[6] = second compound 0.000949 µM, first compound 1 µM
[7] = second compound 0.003 µM, first compound 0.00316 µM
[8] = second compound 0.003 µM, first compound 0.01 µM
[9] = second compound 0.003 µM, first compound 0.0316 µM
[10] = second compound 0.003 µM, first compound 0.1 µM
[11] = second compound 0.003 µM, first compound 0.316 µM
[12] = second compound 0.003 µM, first compound 1 µM
[13] = second compound 0.00949 µM, first compound 0.00316 µM
[14] = second compound 0.00949 µM, first compound 0.01 µM
[15] = second compound 0.00949 µM, first compound 0.0316 µM
[16] = second compound 0.00949 µM, first compound 0.1 µM
[17] = second compound 0.00949 µM, first compound 0.316 µM
[18] = second compound 0.00949 µM, first compound 1 µM
[19] = second compound 0.03 µM, first compound 0.00316 µM
[20] = second compound 0.03 µM, first compound 0.01 µM
[21] = second compound 0.03 µM, first compound 0.0316 µM
[22] = second compound 0.03 µM, first compound 0.1 µM
[23] = second compound 0.03 µM, first compound 0.316 µM
[24] = second compound 0.03 µM, first compound 1 µM
[25] = second compound 0.0949 µM, first compound 0.00316 µM
[26] = second compound 0.0949 µM, first compound 0.01 µM
[27] = second compound 0.0949 µM, first compound 0.0316 µM
[28] = second compound 0.0949 µM, first compound 0.1 µM
[29] = second compound 0.0949 µM, first compound 0.316 µM
[30] = second compound 0.0949 µM, first compound 1 µM
[31] = second compound 0.3 µM, first compound 0.00316 µM
[32] = second compound 0.3 µM, first compound 0.01 µM
[33] = second compound 0.3 µM, first compound 0.0316 µM
[34] = second compound 0.3 µM, first compound 0.1 µM
[35] = second compound 0.3 µM, first compound 0.316 µM
[36] = second compound 0.3 µM, first compound 1 µM
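Also: spheroids exposed to compounds for 7 days.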
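For viability, T/C in this document: 100% = DMSO vehicle control viability.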

Work on `CC1(C)CCC(Nc2ncc(C(F)(F)F)c(-c3c[nH]c4c(P(C)(C)=O)c(C#N)ccc34)n2)CN1` (stereo unspecified) + C=CC(=O)N1CCN(c2nc(OCC3CCCN3C)nc3c(F)c(-c4nc(N)cc(C)c4C(F)(F)F)c(Cl)cc23)C(C)C1 yielded an IC50 (second compound 0.00316 µM) of under 0.949 nM, an IC50 (second compound 0.01 µM) of under 0.949 nM and an IC50 (second compound 0.0316 µM) of under 0.949 nM. For the same molecule, the IC50 (second compound 0.1 µM) was under 0.949 nM, the IC50 (second compound 0.316 µM) was under 0.949 nM and the IC50 (second compound 1 µM) was under 0.949 nM. For the same molecule, the viability, T/C (second compound 0.00316 µM, first compound 0.000949 µM) was 27.1%, the viability, T/C (second compound 0.00316 µM, first compound 0.003 µM) was 29.2% and the viability, T/C (second compound 0.00316 µM, first compound 0.00949 µM) was 25.8%. It also gave a viability, T/C (second compound 0.00316 µM, first compound 0.03 µM) of 25.1%, a viability, T/C (second compound 0.00316 µM, first compound 0.0949 µM) of 27.3% and a viability, T/C (second compound 0.00316 µM, first compound 0.3 µM) of 28.8%. For the same molecule, the viability, T/C (second compound 0.01 µM, first compound 0.000949 µM) was 23.1%, the viability, T/C (second compound 0.01 µM, first compound 0.003 µM) was 20.7% and the viability, T/C (second compound 0.01 µM, first compound 0.00949 µM) was 28.3%. It also gave a viability, T/C (second compound 0.01 µM, first compound 0.03 µM) of 24.7%, a viability, T/C (second compound 0.01 µM, first compound 0.0949 µM) of 26.8% and a viability, T/C (second compound 0.01 µM, first compound 0.3 µM) of 28.3%. The viability, T/C (second compound 0.0316 µM, first compound 0.000949 µM) was 24.6%, the viability, T/C (second compound 0.0316 µM, first compound 0.003 µM) was 24.4% and the viability, T/C (second compound 0.0316 µM, first compound 0.00949 µM) was 22.2%. The viability, T/C (second compound 0.0316 µM, first compound 0.03 µM) was 23.3%, the viability, T/C (second compound 0.0316 µM, first compound 0.0949 µM) was 27.2% and the viability, T/C (second compound 0.0316 µM, first compound 0.3 µM) was 27.4%. It also gave a viability, T/C (second compound 0.1 µM, first compound 0.000949 µM) of 24.6%, a viability, T/C (second compound 0.1 µM, first compound 0.003 µM) of 22.3% and a viability, T/C (second compound 0.1 µM, first compound 0.00949 µM) of 25.5%. It also gave a viability, T/C (second compound 0.1 µM, first compound 0.03 µM) of 23.4%, a viability, T/C (second compound 0.1 µM, first compound 0.0949 µM) of 26.6% and a viability, T/C (second compound 0.1 µM, first compound 0.3 µM) of 27.6%. The viability, T/C (second compound 0.316 µM, first compound 0.000949 µM) was 20%, the viability, T/C (second compound 0.316 µM, first compound 0.003 µM) was 20.3% and the viability, T/C (second compound 0.316 µM, first compound 0.00949 µM) was 25.5%. It also gave a viability, T/C (second compound 0.316 µM, first compound 0.03 µM) of 24.6%, a viability, T/C (second compound 0.316 µM, first compound 0.0949 µM) of 25.8% and a viability, T/C (second compound 0.316 µM, first compound 0.3 µM) of 24.5%. The viability, T/C (second compound 1 µM, first compound 0.000949 µM) was 22.1%, the viability, T/C (second compound 1 µM, first compound 0.003 µM) was 22.3% and the viability, T/C (second compound 1 µM, first compound 0.00949 µM) was 21.1%. For the same molecule, the viability, T/C (second compound 1 µM, first compound 0.03 µM) was 24.2%, the viability, T/C (second compound 1 µM, first compound 0.0949 µM) was 30.4% and the viability, T/C (second compound 1 µM, first compound 0.3 µM) was 26.2%.
`C=CC(=O)Nc1cc(Nc2nccc(-c3cn(C)c4ccccc34)n2)c(OC)cc1N(C)CCN(C)C` + CCn1c(-c2cccnc2C(C)OC)c2c3cc(ccc31)N1CCOC(CC(NC(=O)C(C(C)C)N(C)C(=O)C3(F)CCN(C(=O)C#CC(C)(C)N(C)C)CC3)C(=O)N3CCCC(N3)C(=O)OCC(C)(C)C2)C1 was tested, and the IC50 (second compound 0.000949 µM) was under 3.16 nM, the IC50 (second compound 0.003 µM) was under 3.16 nM and the IC50 (second compound 0.00949 µM) was under 3.16 nM. For the same molecule, the IC50 (second compound 0.03 µM) was under 3.16 nM, the IC50 (second compound 0.0949 µM) was under 3.16 nM and the IC50 (second compound 0.3 µM) was under 3.16 nM. For the same molecule, the viability, T/C [1] was 26.2%, the viability, T/C [2] was 27.5% and the viability, T/C [3] was 26.2%. The viability, T/C [4] was 23%, the viability, T/C [5] was 19.7% and the viability, T/C [6] was 22.6%. For the same molecule, the viability, T/C [7] was 25%, the viability, T/C [8] was 19.2% and the viability, T/C [9] was 23.7%. The viability, T/C [10] was 16.8%, the viability, T/C [11] was 14.6% and the viability, T/C [12] was 15.2%. For the same molecule, the viability, T/C [13] was 21.9%, the viability, T/C [14] was 21.4% and the viability, T/C [15] was 17.2%. The viability, T/C [16] was 16.4%, the viability, T/C [17] was 13.8% and the viability, T/C [18] was 16.4%. For the same molecule, the viability, T/C [19] was 29.2%, the viability, T/C [20] was 19.8% and the viability, T/C [21] was 14.6%. The viability, T/C [22] was 15.8%, the viability, T/C [23] was 15.9% and the viability, T/C [24] was 15.4%. It also gave a viability, T/C [25] of 18.7%, a viability, T/C [26] of 16.2% and a viability, T/C [27] of 15.5%. It also gave a viability, T/C [28] of 11.9%, a viability, T/C [29] of 13.5% and a viability, T/C [30] of 13.1%. For the same molecule, the viability, T/C [31] was 15.2%, the viability, T/C [32] was 15.7% and the viability, T/C [33] was 17.4%. It also gave a viability, T/C [34] of 13.8%, a viability, T/C [35] of 13.7% and a viability, T/C [36] of 13.2%.
Molecule `Nc1ccn(C2OC(CO)C(O)C2(F)F)c(=O)n1` (stereo unspecified) + CCn1c(-c2cccnc2C(C)OC)c2c3cc(ccc31)N1CCOC(CC(NC(=O)C(C(C)C)N(C)C(=O)C3(F)CCN(C(=O)C#CC(C)(C)N(C)C)CC3)C(=O)N3CCCC(N3)C(=O)OCC(C)(C)C2)C1 has an IC50 (second compound 0.000949 µM) of under 3.16 nM, an IC50 (second compound 0.003 µM) of under 3.16 nM and an IC50 (second compound 0.00949 µM) of under 3.16 nM. It also gave an IC50 (second compound 0.03 µM) of under 3.16 nM, an IC50 (second compound 0.0949 µM) of under 3.16 nM and an IC50 (second compound 0.3 µM) of under 3.16 nM. It also gave a viability, T/C [1] of 25.9%, a viability, T/C [2] of 23.6% and a viability, T/C [3] of 25.8%. It also gave a viability, T/C [4] of 23.4%, a viability, T/C [5] of 23.1% and a viability, T/C [6] of 18.5%. For the same molecule, the viability, T/C [7] was 22.8%, the viability, T/C [8] was 20.6% and the viability, T/C [9] was 20.3%. It also gave a viability, T/C [10] of 17.5%, a viability, T/C [11] of 16.3% and a viability, T/C [12] of 13.8%. It also gave a viability, T/C [13] of 22.7%, a viability, T/C [14] of 20.1% and a viability, T/C [15] of 17.9%. For the same molecule, the viability, T/C [16] was 15.7%, the viability, T/C [17] was 15.6% and the viability, T/C [18] was 15.2%. It also gave a viability, T/C [19] of 18.8%, a viability, T/C [20] of 22.6% and a viability, T/C [21] of 17.1%. It also gave a viability, T/C [22] of 13.3%, a viability, T/C [23] of 14.6% and a viability, T/C [24] of 16.9%. For the same molecule, the viability, T/C [25] was 17.2%, the viability, T/C [26] was 17.9% and the viability, T/C [27] was 15.9%. It also gave a viability, T/C [28] of 13.1%, a viability, T/C [29] of 13.3% and a viability, T/C [30] of 12.9%. It also gave a viability, T/C [31] of 14.2%, a viability, T/C [32] of 17.2% and a viability, T/C [33] of 14.3%. The viability, T/C [34] was 12.4%, the viability, T/C [35] was 12.5% and the viability, T/C [36] was 11.4%.
